{"source": "the SangsterLogP compilation", "key": {"[1]": {"assay": "method code SF-RC, from DOI: 10.1007/s00259-007-0645-5, PMID: 18057934", "conditions": "pH 7.4"}, "[2]": {"assay": "method code SF, from DOI: 10.1016/j.ejps.2014.02.002, PMID: 24530864", "conditions": "pH 7.4"}, "[3]": {"assay": "method code SF, from DOI: 10.1097/00004424-199009001-00048", "conditions": "pH 7.4"}, "[4]": {"assay": "not given", "remark": "listed apart in the source"}, "[5]": {"assay": "not given", "remark": "listed apart in the source"}, "[6]": {"assay": "method code SF-HPLC, from DOI: 10.1021/js950346l, PMID: 9109056"}, "[7]": {"assay": "method code SF-RC, from DOI: 10.1016/j.nucmedbio.2007.04.005, PMID: 17591554", "conditions": "pH 7.4"}, "[8]": {"assay": "method code SF-HPLC, from Gao, X.; Yu, Y.; Wang, Y.; Pi, J.; Zhang, W.; Xiao, X. (2013). Determination of equilibrium solubility and apparent partition coefficient of bakuchiol. West China Journal of Pharmaceutical Sciences, …"}, "[9]": {"assay": "method code SF, from DOI: 10.1016/s0223-5234(00)80025-2, PMID: 11278041", "conditions": "pH 7.4"}, "[10]": {"assay": "not given", "remark": "listed apart in the source"}, "[11]": {"assay": "not given", "remark": "listed apart in the source"}, "[12]": {"assay": "method code SF-AS, from DOI: 10.1111/j.2042-7158.1989.tb06480.x, PMID: 2570831", "conditions": "pH 7.4"}, "[13]": {"assay": "method code SF-HPLC, from DOI: 10.1016/j.bmc.2015.09.009, PMID: 26385444"}, "[14]": {"assay": "method code SF-AS, from DOI: 10.3390/molecules16097565, PMID: 21894089"}, "[15]": {"assay": "method code SF, from DOI: 10.1016/0223-5234(96)89550-x"}, "[16]": {"assay": "not given", "remark": "listed apart in the source"}, "[17]": {"assay": "method code SF-RC, from DOI: 10.1515/ract-2013-2119"}, "[18]": {"assay": "not given", "remark": "listed apart in the source"}, "[19]": {"assay": "method code SF-RC, from DOI: 10.1021/es60172a005, PMID: 22280000"}, "[20]": {"assay": "method code SF, from DOI: 10.1021/jm00123a006, PMID: 2918500", "conditions": "pH 7.4"}, "[21]": {"assay": "method code SF-AS, from DOI: 10.1021/es00127a005"}, "[22]": {"assay": "method code SF, from Zhang, Y. (2010). Determination and Correlation of 1-Octanol/Water Partition Coefficients for Six Quinolones from 293.15 K to 323.15 K. Chemical Research in Chinese Universities, 26(4)636-639."}, "[23]": {"assay": "not given", "remark": "listed apart in the source"}, "[24]": {"assay": "method code SF, from DOI: 10.1016/s0969-8051(99)00063-3, PMID: 10628565", "conditions": "pH 7.4"}, "[25]": {"assay": "not given", "remark": "listed apart in the source"}, "[26]": {"assay": "not given", "remark": "listed apart in the source"}, "[27]": {"assay": "method code SF-RC, from DOI: 10.1267/nukl06010041, PMID: 16493513", "conditions": "pH 7.4"}, "[28]": {"assay": "method code SF, from DOI: 10.1021/jm9018146, PMID: 20232803", "conditions": "pH 7.4"}, "[29]": {"assay": "method code SF, from DOI: 10.1021/acs.jmedchem.6b00554, PMID: 27500461", "conditions": "pH 7.4"}, "[30]": {"assay": "not given", "remark": "listed apart in the source"}, "[31]": {"assay": "method code SF-AS, from Sengupta, C.; Mondal, K. (1986). Partition coefficients of some anticoagulants and coagulants in relation to their biological activity. Indian J Pharm Sci, 48(2)51-52."}, "[32]": {"assay": "not given", "remark": "listed apart in the source"}, "[33]": {"assay": "method code SF-HPLC, from DOI: 10.1016/j.bmc.2009.06.014, PMID: 19586774", "conditions": "pH 7.4"}, "[34]": {"assay": "not given", "remark": "listed apart in the source"}, "[35]": {"assay": "method code SF-HPLC, from DOI: 10.1016/0378-5173(94)90060-4", "conditions": "pH 5.0"}, "[36]": {"assay": "method code SF-AS, from PMID: 7306420", "conditions": "pH 7.5"}, "[37]": {"assay": "method code SF-AS, from DOI: 10.1016/0048-3575(89)90091-6"}, "[38]": {"assay": "not given", "remark": "listed apart in the source"}, "[39]": {"assay": "not given", "remark": "listed apart in the source"}, "[40]": {"assay": "method code SF-RC, from DOI: 10.1016/j.mibio.2003.09.009", "conditions": "pH 7.4"}, "[41]": {"assay": "not given", "remark": "listed apart in the source"}, "[42]": {"assay": "method code SF-HPLC, from DOI: 10.1021/jm1007903, PMID: 20828199", "conditions": "pH 7.4"}, "[43]": {"assay": "not given", "remark": "listed apart in the source"}, "[44]": {"assay": "method code SF-AS, from PMID: 582102", "conditions": "pH 3.0"}, "[45]": {"assay": "not given", "remark": "listed apart in the source"}}}
{"smiles": "CCN(CC)C(=O)Cc1c(-c2ccc(I)cc2)nc2ccc(Cl)cn12", "values": [{"measurement": "logD", "setting": "[1]", "value": 3.1}]}
{"smiles": "Cc1ncc2n1-c1ccc(Cl)cc1C(c1ccccc1F)=NC2", "values": [{"measurement": "logD", "setting": "[2]", "value": 3}]}
{"smiles": "O=C(NCC(O)CO)c1c(I)c(C(=O)NCC(O)CO)c(I)c(N(CCO)C(=O)CO)c1I", "note": "(stereo unspecified)", "values": [{"measurement": "logD", "setting": "[3]", "value": -2.98}]}
{"smiles": "O=C(NC12CC3CC(CC(C3)C1)C2)C(O)c1ccccc1", "note": "(stereo unspecified)", "values": [{"measurement": "logP", "value": 3.09}]}
{"smiles": "CCCCCCCCCCCC(=O)N1CCCCCC1", "values": [{"measurement": "logP", "setting": "[4]", "value": 7.3}]}
{"smiles": "CCN(CC)CCN1c2ccccc2Sc2ccccc21", "values": [{"measurement": "logP", "setting": "[5]", "value": 5.94}]}
{"smiles": "COc1ccc2c(c1)c(CC(=O)O)c(C)n2C(=O)c1ccc(Cl)cc1", "values": [{"measurement": "logP", "setting": "[6]", "value": 3.86}]}
{"smiles": "COc1ccc(/C=C2\\CCCN=C2c2cccnc2)c(OC)c1", "values": [{"measurement": "logD", "setting": "[7]", "value": 2.82}]}
{"smiles": "C=C[C@@](C)(/C=C/c1ccc(O)cc1)CCC=C(C)C", "values": [{"measurement": "logP", "setting": "[8]", "value": 4.27}]}
{"smiles": "CC(C)Cc1ccc(C(C)C(=O)OCN2C(=O)CCC2=O)cc1", "note": "(stereo unspecified)", "values": [{"measurement": "logD", "setting": "[9]", "value": 2.62}]}
{"smiles": "C[C@]12CCC(=O)C[C@@H]1CC[C@@H]1[C@@H]2[C@@H](F)C[C@]2(C)[C@@H](O)CC[C@@H]12", "values": [{"measurement": "logP", "setting": "[10]", "value": 3.5}]}
{"smiles": "CCC(C)(CC)c1cc(NC(=O)c2c(OC)cccc2OC)on1", "values": [{"measurement": "logP", "setting": "[11]", "value": 3}]}
{"smiles": "Nc1ncnc2c1ncn2C(c1ccccc1)c1ccccc1", "values": [{"measurement": "logD", "setting": "[12]", "value": 3.19}]}
{"smiles": "CC1=C(C(=O)Nc2nc3ccccc3s2)C(c2ccccc2)NC(=S)N1", "note": "(stereo unspecified)", "values": [{"measurement": "logP", "setting": "[13]", "value": 2.03}]}
{"smiles": "C[C@H](c1nc2ccc(F)cc2s1)N1C(=O)C(=O)N(c2ccccc2)C1=O", "values": [{"measurement": "logP", "setting": "[14]", "value": 1.51}]}
{"smiles": "O=C(Nc1ccn(C2CSC(CO)O2)c(=O)n1)c1cnc2ccccc2c1", "note": "(stereo unspecified)", "values": [{"measurement": "logP", "setting": "[15]", "value": 0.87}]}
{"smiles": "CCCCCCCCCCOc1ccc(C(=O)O)cc1", "values": [{"measurement": "logP", "setting": "[16]", "value": 5.77}]}
{"smiles": "Fc1ccc(CN2CCN(Cc3cnn4ccccc34)CC2)cc1", "values": [{"measurement": "logP", "setting": "[17]", "value": 2.8}]}
{"smiles": "CC(=O)Oc1c(C)cc(OCC(O)CNC(C)C)c(C)c1C", "note": "(stereo unspecified)", "values": [{"measurement": "logP", "setting": "[18]", "value": 1.95}]}
{"smiles": "c1ccc2nc(-c3ccc4ccccc4n3)ccc2c1", "values": [{"measurement": "logP", "setting": "[19]", "value": 4.31}]}
{"smiles": "Nc1ccc(CCN2CCN(c3cccc(C(F)(F)F)c3)CC2)cc1I", "values": [{"measurement": "logD", "setting": "[20]", "value": 3.69}]}
{"smiles": "Oc1ccc(C(c2ccccc2)c2ccc(O)cc2)cc1", "values": [{"measurement": "logP", "setting": "[21]", "value": 4.3}]}
{"smiles": "CC1COc2c(N3CCN(C)CC3)c(F)cc3c(=O)c(C(=O)O)cn1c23", "note": "(stereo unspecified)", "values": [{"measurement": "logP", "setting": "[22]", "value": -0.05}]}
{"smiles": "CC[C@H](Oc1ccccc1)C(=O)N[C@@H]1C(=O)N2[C@@H]1SC(C)(C)[C@@H]2C(=O)O", "values": [{"measurement": "logP", "setting": "[23]", "value": 2.58}]}
{"smiles": "CC(=O)OCC1C(OC(C)=O)C(OC(C)=O)C(OC(C)=O)CN1CCCI", "note": "(stereo unspecified)", "values": [{"measurement": "logD", "setting": "[24]", "value": 1.76}]}
{"smiles": "CCC(c1ccc(O)cc1)C(C(C)=O)c1ccc(O)cc1", "note": "(stereo unspecified)", "values": [{"measurement": "logP", "setting": "[25]", "value": 3.1}]}
{"smiles": "CN(C)CC/C=C1/c2ccccc2Sc2ccc(Cl)cc21", "values": [{"measurement": "logP", "setting": "[26]", "value": 5.18}]}
{"smiles": "Clc1ccc(N2CCN(Cc3cnn4c(I)cccc34)CC2)cc1", "values": [{"measurement": "logD", "setting": "[27]", "value": 2.36}]}
{"smiles": "CCOC(=O)[C@@]1(C)CSC(c2ccc(OCCOCCOC)cc2O)=N1", "values": [{"measurement": "logD", "setting": "[28]", "value": 3}]}
{"smiles": "Cc1sc(=NC(=O)C2C(C)(C)C2(C)C)n(CCCCF)c1C", "values": [{"measurement": "logD", "setting": "[29]", "value": 3.22}]}
{"smiles": "O=S(c1ccc(F)cc1)C1CCN(CCc2ccc(F)cc2F)CC1", "note": "(stereo unspecified)", "values": [{"measurement": "logP", "setting": "[30]", "value": 2.67}]}
{"smiles": "CC(=O)CC(c1ccc([N+](=O)[O-])cc1)c1c(O)c2ccccc2oc1=O", "note": "(stereo unspecified)", "values": [{"measurement": "logP", "setting": "[31]", "value": 1.98}]}
{"smiles": "O=C1/C(=C/c2ccccc2F)CCCc2ccccc21", "values": [{"measurement": "logP", "setting": "[32]", "value": 4.55}]}
{"smiles": "CCc1cc(Cl)cc2[nH]c(=O)c(-c3cccc(NC)c3)c(O)c12", "values": [{"measurement": "logD", "setting": "[33]", "value": 1.92}]}
{"smiles": "c1ccc(Oc2ccccc2-c2ccccc2)cc1", "values": [{"measurement": "logP", "setting": "[34]", "value": 5.66}]}
{"smiles": "COC(=O)Nc1nc2cc(C(=O)c3ccccc3)ccc2n1C(=O)OC", "values": [{"measurement": "logD", "setting": "[35]", "value": 2.47}]}
{"smiles": "C#CCN1C(=O)CN=C(c2ccccc2)c2cc(Cl)ccc21", "values": [{"measurement": "logD", "setting": "[36]", "value": 2.87}]}
{"smiles": "CC1(C)C(C=C2CCSC2=O)C1C(=O)OCc1ccccc1", "note": "(stereo unspecified)", "values": [{"measurement": "logP", "setting": "[37]", "value": 4.02}]}
{"smiles": "O=S1(=O)OC(c2ccc(O)cc2)(c2ccc(O)cc2)c2ccccc21", "values": [{"measurement": "logP", "setting": "[38]", "value": 3.02}]}
{"smiles": "CCN1CCc2cc(S(=O)(=O)Nc3ccc(F)cc3F)cc(NC(C)=O)c21", "values": [{"measurement": "logP", "setting": "[39]", "value": 1.4}]}
{"smiles": "CN1CCc2cc(Cl)c(O)cc2C(c2cccc3ccoc23)C1", "note": "(stereo unspecified)", "values": [{"measurement": "logD", "setting": "[40]", "value": 3}]}
{"smiles": "COc1ccc(C2=CC(c3ccc(S(C)(=O)=O)cc3)C=NC2=O)cn1", "note": "(stereo unspecified)", "values": [{"measurement": "logP", "setting": "[41]", "value": 1.7}]}
{"smiles": "CCCCCCCc1c(C)[nH]c2cc(OC)c(Cl)cc2c1=O", "values": [{"measurement": "logD", "setting": "[42]", "value": 3.83}]}
{"smiles": "COc1ccc(N2CCn3c(nc4ccccc4c3=O)C2C)cc1", "note": "(stereo unspecified)", "values": [{"measurement": "logP", "setting": "[43]", "value": 1.29}]}
{"smiles": "COc1ccc(N(CCCC(=O)O)C(=O)c2ccc(Cl)cc2)cc1", "values": [{"measurement": "logD", "setting": "[44]", "value": 2.7}]}
{"smiles": "CN(C)CCc1c[nH]c2ccc(CS(=O)(=O)N3CCCC3)cc12", "values": [{"measurement": "logP", "setting": "[45]", "value": 1.6}]}
